Laboratory results reported in ChEMBL document CHEMBL5532759, “Discovery of dibenzylbutane lignan LCA derivatives as potent anti-inflammatory agents” (RSC Med Chem, 2024).
The source made the active and inactive calls. The calls are words filed in the database; no cut-off is given here.

Legend:
[1] = Cytotoxicity against mouse RAW264.7 cells assessed as survival rate at 20 uM incubated for 24 hrs by CCK-8 assay relative to control (reference value: 100 %); assay type: toxicity, cell-based; conditions: read-out: Survival
[2] = test system: RAW264.7; test: Antiinflammatory activity in LPS-induced mouse RAW264.7 cells assessed as inhibition of NO release at 20 uM preincubated for 4 hrs followed by LPS addition for 24 hrs by Griess reagent based assay relative to control (reference value: 100 %); assay type: functional; parameters: scale not given: the % may be the effect or the level left; conditions: time 28 hrs
[3] = test system: RAW264.7; test: Antiinflammatory activity in LPS-induced mouse RAW264.7 cells assessed as inhibition of NO release preincubated for 4 hrs followed by LPS addition for 24 hrs by Griess reagent based assay; assay type: functional, cell-based; conditions: dose 2.5-20 µM, time 28.0 hrs
[4] = test system: Mus musculus; test: Antiinflammatory activity against carrageenan-induced paw edema in ICR mouse assessed as reduction in paw thickness at 20 mg/kg, ip measured at 60 to 240 mins; assay type: functional, organism-based; conditions: time 60-240 min
[5] = test system: Mus musculus; test: Antiinflammatory activity against carrageenan-induced paw edema in ICR mouse assessed as inhibition of paw swelling at 20 mg/kg, ip measured after 120 min; assay type: functional, organism-based
[6] = test system: RAW264.7; test: Antiinflammatory activity in LPS-induced mouse RAW264.7 cells assessed as inhibition of IL-1beta secretion at 2.5 to 20 uM preincubated for 1 hr followed by LPS addition for 24 hrs by ELISA method; assay type: functional, cell-based; conditions: dose 2.5-20 µM, time 25.0 hrs
[7] = test system: RAW264.7; test: Antiinflammatory activity in LPS-induced mouse RAW264.7 cells assessed as inhibition of IL-6 secretion at 2.5 to 20 uM preincubated for 1 hr followed by LPS addition for 24 hrs by ELISA method; assay type: functional, cell-based; conditions: dose 2.5-20 µM, time 25.0 hrs
[8] = test system: RAW264.7; test: Antiinflammatory activity in LPS-induced mouse RAW264.7 cells assessed as inhibition of TNFalpha secretion at 2.5 to 20 uM preincubated for 1 hr followed by LPS addition for 24 hrs by ELISA method; assay type: functional, cell-based; conditions: dose 2.5-20 µM, time 25.0 hrs
[9] = test system: RAW264.7; test: Antiinflammatory activity in LPS-induced mouse RAW264.7 cells assessed as reduction in IL-1beta mRNA level preincubated for 1 hr followed by LPS addition for 24 hrs by RT-qPCR analysis; assay type: functional, cell-based; conditions: dose 10-20 µM, time 25.0 hrs
[10] = test system: RAW264.7; test: Antiinflammatory activity in LPS-induced mouse RAW264.7 cells assessed as reduction in IL-6 mRNA level preincubated for 1 hr followed by LPS addition for 24 hrs by RT-qPCR analysis; assay type: functional, cell-based; conditions: dose 10-20 µM, time 25.0 hrs
[11] = test system: RAW264.7; test: Antiinflammatory activity in LPS-induced mouse RAW264.7 cells assessed as reduction in TNFalpha mRNA level incubated for 1 hr followed by LPS addition for 24 hrs by RT-qPCR analysis; assay type: functional, cell-based; conditions: dose 10-20 µM, time 25.0 hrs
[12] = test system: RAW264.7; test: Inhibition of NF-kappaB signaling in LPS-induced mouse RAW264.7 cells assessed as reduction in IkBalpha degradation preincubated for 1 hr followed by LPS addition for 1 hr by Western blot analysis; assay type: cell-based; conditions: dose 10-20 µM, time 2.0 hrs
[13] = test system: RAW264.7; test: Inhibition of NF-kB signaling in LPS-induced mouse RAW264.7 cells assessed as reduction in p65 phosphorylation preincubated for 1 hr followed by LPS addition for 1 hr by Western blot analysis; assay type: cell-based; conditions: dose 10-20 µM, time 2.0 hrs
[14] = test system: RAW264.7; test: Inhibition of NF-kB p65 nuclear translocation from cytoplasm to nucleus in mouse RAW264.7 cells at 20 uM preincubated for 1 hr followed by LPS addition for 4 hrs by immunofluorescence assay; assay type: functional, cell-based; conditions: time 5.0 hrs
[15] = test system: Mus musculus; test: Antiinflammatory activity against carrageenan-induced paw edema in ICR mouse assessed as reduction in paw thickness at 5 to 20 mg/kg, ip measured at 60 to 240 mins; assay type: functional, organism-based; conditions: dose 5-20 mg/kg, time 60-240 min
[16] = test system: Mus musculus; test: Antiinflammatory activity against carrageenan-induced paw edema in ip dosed ICR mouse assessed as reduction in IL-1beta level by ELISA method; assay type: functional, organism-based; conditions: dose 5-20 mg/kg
[17] = test system: Mus musculus; test: Antiinflammatory activity against carrageenan-induced paw edema in ip dosed ICR mouse assessed as reduction in IL-6 level by ELISA method; assay type: functional, organism-based; conditions: dose 5-20 mg/kg
[18] = test system: Mus musculus; test: Antiinflammatory activity against carrageenan-induced paw edema in ip dosed ICR mouse assessed as reduction in TNF-alpha level by ELISA method; assay type: functional, organism-based; conditions: dose 5-20 mg/kg
[19] = test system: Mus musculus; test: Antiinflammatory activity against carrageenan-induced paw edema in ICR mouse assessed as inhibition of paw swelling at 5 to 20 mg/kg, ip measured after 120 min; assay type: functional, organism-based; conditions: dose 5-20 mg/kg

| SMILES | viability at 24 h, 20 µM [1] | Activity [2] | also measured |
| --- | --- | --- | --- |
| COc1cc(C[C@H](C(=O)NCc2ccncc2F)[C@@H](Cc2cc(OC)c(O)c(OC)c2)C(=O)NCc2ccncc2F)cc(OC)c1O | 95.9% | 67.9% |  |
| COc1cc(C[C@H](C(=O)NCc2ccc(S(C)(=O)=O)cc2)[C@@H](Cc2cc(OC)c(O)c(OC)c2)C(=O)NCc2ccc(S(C)(=O)=O)cc2)cc(OC)c1O | 70% | 63.1% |  |
| C[C@@H]1C[C@H]2[C@@H]3CCC4=CC(=O)C=C[C@]4(C)[C@@]3(F)[C@@H](O)C[C@]2(C)[C@@]1(O)C(=O)CO [DEXAMETHASONE] | 94.8% | 45.9% |  |
| COc1ccc(CNC(=O)[C@@H](Cc2cc(OC)c(O)c(OC)c2)[C@@H](Cc2cc(OC)c(O)c(OC)c2)C(=O)NCc2ccc(OC)cc2)cc1 | 99.9% | 45.9% |  |
| COc1cc(C[C@H](C(=O)NCc2ccccc2F)[C@@H](Cc2cc(OC)c(O)c(OC)c2)C(=O)NCc2ccccc2F)cc(OC)c1O | 105% | 47.3% |  |
| COc1cc(C[C@H](C(=O)NCc2cc(C)ccn2)[C@@H](Cc2cc(OC)c(O)c(OC)c2)C(=O)NCc2cc(C)ccn2)cc(OC)c1O | 83% | 71.5% |  |
| COc1cc(C[C@H](C(=O)NCc2ccc(F)cc2)[C@@H](Cc2cc(OC)c(O)c(OC)c2)C(=O)NCc2ccc(F)cc2)cc(OC)c1O | 103% | 43.1% |  |
| COc1cc(C[C@H](C(=O)NCc2ncccc2C)[C@@H](Cc2cc(OC)c(O)c(OC)c2)C(=O)NCc2ncccc2C)cc(OC)c1O | 85.1% | 66.3% |  |
| COc1cc(C[C@H](C(=O)NCc2cccc(C)n2)[C@@H](Cc2cc(OC)c(O)c(OC)c2)C(=O)NCc2cccc(C)n2)cc(OC)c1O | 93.3% | 44.7% |  |
| COc1cc(C[C@H](C(=O)NCc2ccncc2)[C@@H](Cc2cc(OC)c(O)c(OC)c2)C(=O)NCc2ccncc2)cc(OC)c1O | 69.5% | 46.5% |  |
| COc1cc(CNC(=O)[C@@H](Cc2cc(OC)c(O)c(OC)c2)[C@@H](Cc2cc(OC)c(O)c(OC)c2)C(=O)NCc2ccc(O)c(OC)c2)ccc1O | 96.6% | 49% |  |
| COc1cc(C[C@H](C(=O)NCc2ccccc2)[C@@H](Cc2cc(OC)c(O)c(OC)c2)C(=O)NCc2ccccc2)cc(OC)c1O | 103% | 42.6% |  |
| COc1cc(/C=C/C(=O)OC[C@H](Cc2cc(OC)c(O)c(OC)c2)[C@@H](COC(=O)/C=C/c2ccc(O)c(OC)c2)Cc2cc(OC)c(O)c(OC)c2)ccc1O | 82.2% | 29.5% | inhibition [3]: Dose-Dependent Effect; Activity [4]: Active; inhibition [5]: Active |
| COc1cc(C[C@H](C(=O)NCc2ccccn2)[C@@H](Cc2cc(OC)c(O)c(OC)c2)C(=O)NCc2ccccn2)cc(OC)c1O | 92.2% | 48.1% |  |
| COc1cc(C[C@H](C(=O)NCc2cccc(F)c2)[C@@H](Cc2cc(OC)c(O)c(OC)c2)C(=O)NCc2cccc(F)c2)cc(OC)c1O | 99.4% | 41.9% |  |
| COc1cccc(CNC(=O)[C@@H](Cc2cc(OC)c(O)c(OC)c2)[C@@H](Cc2cc(OC)c(O)c(OC)c2)C(=O)NCc2cccc(OC)c2)c1 | 100% | 44.2% |  |
| COc1cc(CNC(=O)[C@@H](Cc2cc(OC)c(O)c(OC)c2)[C@@H](Cc2cc(OC)c(O)c(OC)c2)C(=O)NCc2cc(OC)cc(OC)c2)cc(OC)c1 | 99.1% | 49.3% |  |
| COc1ccc(CNC(=O)[C@@H](Cc2cc(OC)c(O)c(OC)c2)[C@@H](Cc2cc(OC)c(O)c(OC)c2)C(=O)NCc2ccc(OC)cc2OC)c(OC)c1 | 98.4% | 47.6% |  |
| COc1cc(C[C@H](C(=O)NCc2ccc(F)cc2F)[C@@H](Cc2cc(OC)c(O)c(OC)c2)C(=O)NCc2ccc(F)cc2F)cc(OC)c1O | 97.5% | 46.5% |  |
| COc1cc(C[C@H](C(=O)NCc2cccnc2OC)[C@@H](Cc2cc(OC)c(O)c(OC)c2)C(=O)NCc2cccnc2OC)cc(OC)c1O | 69.9% | 51.1% |  |
| COc1cc(C[C@H](C(=O)NCc2ccc(C)cc2)[C@@H](Cc2cc(OC)c(O)c(OC)c2)C(=O)NCc2ccc(C)cc2)cc(OC)c1O | 95.6% | 47% |  |
| COc1cc(C[C@H](C(=O)NCc2cc(F)cc(F)c2)[C@@H](Cc2cc(OC)c(O)c(OC)c2)C(=O)NCc2cc(F)cc(F)c2)cc(OC)c1O | 97.8% | 43.9% |  |
| COc1cc(C[C@H](C(=O)NCc2cccnc2C(F)(F)F)[C@@H](Cc2cc(OC)c(O)c(OC)c2)C(=O)NCc2cccnc2C(F)(F)F)cc(OC)c1O | 90.7% | 55.1% |  |
| COc1cc(C[C@H](C(=O)NCc2ccc(F)cn2)[C@@H](Cc2cc(OC)c(O)c(OC)c2)C(=O)NCc2ccc(F)cn2)cc(OC)c1O | 81.3% | 47.1% |  |
| COc1cc(C[C@H](C(=O)NCc2ccc(C(F)(F)F)cc2)[C@@H](Cc2cc(OC)c(O)c(OC)c2)C(=O)NCc2ccc(C(F)(F)F)cc2)cc(OC)c1O | 99.1% | 31.1% | Activity [3]: Dose-Dependent Effect; Activity [6]: Active; Activity [7]: Active; Activity [8]: Active; Activity [9]: Dose-Dependent Effect; Activity [10]: Dose-Dependent Effect; Activity [11]: Dose-Dependent Effect; inhibition [12]: Dose-Dependent Effect; inhibition [13]: Dose-Dependent Effect; inhibition [14]: Active; Activity [15]: Active; Activity [16]: Dose-Dependent Effect; Activity [17]: Dose-Dependent Effect; Activity [18]: Dose-Dependent Effect; inhibition [19]: Active |
